Experimental data as given in ChEMBL document CHEMBL1130004, “Bioactivities and secondary structures of constrained analogues of human parathyroid hormone: cyclic lactams of the receptor binding region” (J Med Chem, 1997).
Positions of bridges follow the written chain, without caps; N, C: chain ends. Residues, ends and D or L forms follow the SMILES beside them.

Organism: Rattus norvegicus
Assay: Adenylyl cyclase stimulating activity expressed as effective dose was measured in rat osteosarcoma 17/2 cells
Format: functional, cell-based

Molecule	EC50
CC[C@H](C)[C@H](NC(=O)[C@H](CCC(=O)O)NC(=O)[C@H](CO)NC(=O)[C@@H](NC(=O)[C@@H](N)CO)C(C)C)C(=O)N[C@@H](CCC(N)=O)C(=O)N[C@@H](CC(C)C)C(=O)N[C@@H](CCSC)C(=O)N[C@@H](Cc1c[nH]cn1)C(=O)N[C@@H](CC(N)=O)C(=O)N[C@@H](CC(C)C)C(=O)NCC(=O)N[C@@H](CCCCN)C(=O)N[C@@H](Cc1c[nH]cn1)C(=O)N[C@@H](CC(C)C)C(=O)N[C@@H](CC(N)=O)C(=O)N[C@@H](CO)C(=O)N[C@@H](CCSC)C(=O)N[C@@H](CCC(=O)O)C(=O)N[C@@H](CCCN=C(N)N)C(=O)N[C@H](C(=O)N[C@@H](CCC(=O)O)C(=O)N[C@@H](Cc1c[nH]c2ccccc12)C(=O)N[C@@H](CC(C)C)C(=O)N[C@@H](CCCN=C(N)N)C(=O)N[C@@H](CCCCN)C(=O)N[C@H]1CCCCNC(=O)C[C@@H](C(=O)N[C@H](C(N)=O)C(C)C)NC(=O)[C@H](CCC(N)=O)NC(=O)[C@H](CC(C)C)NC1=O)C(C)C	40.3 nM
H-SVSEIQLMHNLGKHLNSMERVEWLRKKLQD-NH2	20 nM
H-SVSEIQLMHNLGKHLNSMERVEWLRKLLQD-NH2	20 nM

More lines, in order of falling EC50, values ahead:

EC50	Molecule
20 nM	CC[C@H](C)[C@H](NC(=O)[C@H](CCC(=O)O)NC(=O)[C@H](CO)NC(=O)[C@@H](NC(=O)[C@@H](N)CO)C(C)C)C(=O)N[C@@H](CCC(N)=O)C(=O)N[C@@H](CC(C)C)C(=O)N[C@@H](CCSC)C(=O)N[C@@H](Cc1c[nH]cn1)C(=O)N[C@@H](CC(N)=O)C(=O)N[C@@H](CC(C)C)C(=O)NCC(=O)N[C@@H](CCCCN)C(=O)N[C@@H](Cc1c[nH]cn1)C(=O)N[C@@H](CC(C)C)C(=O)N[C@@H](CC(N)=O)C(=O)N[C@@H](CO)C(=O)N[C@@H](CCSC)C(=O)N[C@@H](CCC(=O)O)C(=O)N[C@@H](CCCN=C(N)N)C(=O)N[C@H](C(=O)N[C@H]1CCC(=O)NCCCC[C@@H](C(=O)N[C@@H](CC(C)C)C(=O)N[C@@H](CC(C)C)C(=O)N[C@@H](CCC(N)=O)C(=O)N[C@@H](CC(=O)O)C(N)=O)NC(=O)[C@H](CCCN=C(N)N)NC(=O)[C@H](CC(C)C)NC(=O)[C@H](Cc2c[nH]c3ccccc23)NC1=O)C(C)C (H-SVSEIQLMHNLGKHLNSMERVEWLRKLLQD-NH2; lactam 22-26)
11.5 nM	CC[C@H](C)[C@H](NC(=O)[C@H](CCC(=O)O)NC(=O)[C@H](CO)NC(=O)[C@@H](NC(=O)[C@@H](N)CO)C(C)C)C(=O)N[C@@H](CCC(N)=O)C(=O)N[C@@H](CC(C)C)C(=O)N[C@@H](CCSC)C(=O)N[C@@H](Cc1c[nH]cn1)C(=O)N[C@@H](CC(N)=O)C(=O)N[C@@H](CC(C)C)C(=O)NCC(=O)N[C@@H](CCCCN)C(=O)N[C@@H](Cc1c[nH]cn1)C(=O)N[C@@H](CC(C)C)C(=O)N[C@@H](CC(N)=O)C(=O)N[C@@H](CO)C(=O)N[C@@H](CCSC)C(=O)N[C@@H](CCC(=O)O)C(=O)N[C@@H](CCCN=C(N)N)C(=O)N[C@H](C(=O)N[C@@H](CCC(=O)O)C(=O)N[C@@H](Cc1c[nH]c2ccccc12)C(=O)N[C@@H](CC(C)C)C(=O)N[C@@H](CCCN=C(N)N)C(=O)N[C@@H](CCCCN)C(=O)N[C@@H](CC(C)C)C(=O)N[C@@H](CC(C)C)C(=O)N[C@@H](CCC(N)=O)C(=O)N[C@@H](CC(=O)O)C(=O)N[C@H](C(N)=O)C(C)C)C(C)C
3.3 nM	CC[C@H](C)[C@H](NC(=O)[C@H](CCC(=O)O)NC(=O)[C@H](CO)NC(=O)[C@@H](NC(=O)[C@@H](N)CO)C(C)C)C(=O)N[C@@H](CCC(N)=O)C(=O)N[C@@H](CC(C)C)C(=O)N[C@@H](CCSC)C(=O)N[C@@H](Cc1c[nH]cn1)C(=O)N[C@@H](CC(N)=O)C(=O)N[C@@H](CC(C)C)C(=O)NCC(=O)N[C@@H](CCCCN)C(=O)N[C@@H](Cc1c[nH]cn1)C(=O)N[C@@H](CC(C)C)C(=O)N[C@@H](CC(N)=O)C(=O)N[C@@H](CO)C(=O)N[C@@H](CCSC)C(=O)N[C@@H](CCC(=O)O)C(=O)N[C@@H](CCCN=C(N)N)C(=O)N[C@H](C(=O)N[C@H]1CCC(=O)NCCCC[C@@H](C(=O)N[C@@H](CC(C)C)C(=O)N[C@@H](CC(C)C)C(=O)N[C@@H](CCC(N)=O)C(=O)N[C@@H](CC(=O)O)C(=O)N[C@H](C(N)=O)C(C)C)NC(=O)[C@H](CCCN=C(N)N)NC(=O)[C@H](CC(C)C)NC(=O)[C@H](Cc2c[nH]c3ccccc23)NC1=O)C(C)C (H-SVSEIQLMHNLGKHLNSMERVEWLRKLLQDV-NH2; lactam 22-26)
